Test results published in ChEMBL document CHEMBL1159173, “Investigation of side-chain sar, formulation and injection site toleration of pyrazolo[3,4-f]quinoline derivatives: a potent series of in vivo active immunostimulants” (Bioorg Med Chem Lett, 1993).

Tests used:
[1] = Solubility was determined; assay type: physicochemical
Mus musculus [2] = species: Mus musculus; test: Minimum effective dose for immunostimulant activity in mice was determined; assay type: functional; conditions: read-out: MED
Mus musculus [3] = species: Mus musculus; test: Minimum effective dose for immunostimulant activity in mice was determined; Toxic; assay type: functional, organism-based

**Q.** With Cc1ccc(Nc2cc(C)nc3ccc4c[nH]nc4c23)cc1 as the compound, how does the solubility [1] read?
**A.** < 6000 µg/mL

**Q.** What about the minimal effective dose (Mus musculus [2]) of the same compound?
**A.** 6.25 mg/kg

**Q.** With CCc1ccc(Nc2cc(C)nc3ccc4c[nH]nc4c23)cc1 as the compound, how does the solubility [1] read?
**A.** > 6000 µg/mL

**Q.** What about the minimal effective dose (Mus musculus [2]) of the same compound?
**A.** 12.5 mg/kg

**Q.** With CCCCOc1ccc(Nc2cc(C)nc3ccc4c[nH]nc4c23)cc1 as the compound, how does the solubility [1] read?
**A.** < 6000 µg/mL

**Q.** What about the minimal effective dose (Mus musculus [2]) of the same compound?
**A.** 1.85 mg/kg

**Q.** Which minimal effective dose (Mus musculus [2]) does the source give for COc1ccc(Nc2cc(C)nc3ccc4c[nH]nc4c23)cc1 here?
**A.** 16.7 mg/kg

**Q.** With Cc1cc(Nc2ccc(OCC3CCCCC3)cc2)c2c(ccc3c[nH]nc32)n1 as the compound, how does the solubility [1] read?
**A.** < 6000 µg/mL

**Q.** And the minimal effective dose (Mus musculus [2])?
**A.** 0.62 mg/kg

**Q.** What does the source list for Cc1cc(Nc2ccc(Cl)cc2)c2c(ccc3c[nH]nc32)n1?
**A.** solubility [1]: < 6000 µg/mL; minimal effective dose (Mus musculus [2]): 1.85 mg/kg

**Q.** What does the source list for CCCc1ccc(Nc2cc(C)nc3ccc4c[nH]nc4c23)cc1?
**A.** solubility [1]: > 6000 µg/mL; minimal effective dose (Mus musculus [2]): 6.25 mg/kg

**Q.** With Cc1cc(Nc2ccc(O)cc2)c2c(ccc3c[nH]nc32)n1 as the compound, how does the minimal effective dose (Mus musculus [2]) read?
**A.** 16.7 mg/kg

**Q.** Which solubility [1] does the source give for CCCCOc1ccc(Nc2ccnc3ccc4c[nH]nc4c23)cc1 here?
**A.** > 6000 µg/mL

**Q.** And the minimal effective dose (Mus musculus [2])?
**A.** 3.13 mg/kg

**Q.** With c1cc(Nc2ccc(OCC3CCCCC3)cc2)c2c(ccc3c[nH]nc32)n1 as the compound, how does the solubility [1] read?
**A.** < 6000 µg/mL

**Q.** And the minimal effective dose (Mus musculus [2])?
**A.** 0.62 mg/kg

**Q.** For Clc1ccc(Nc2ccnc3ccc4c[nH]nc4c23)cc1, which solubility [1] is on record?
**A.** < 6000 µg/mL

**Q.** What about the minimal effective dose (Mus musculus [2]) of the same compound?
**A.** 12.5 mg/kg

**Q.** With Cc1cc(Nc2cccnc2)c2c(ccc3c[nH]nc32)n1 as the compound, how does the minimal effective dose (Mus musculus [2]) read?
**A.** > 50 mg/kg

**Q.** Which results are given for CCCCc1ccc(Nc2ccnc3ccc4c[nH]nc4c23)cc1?
**A.** solubility [1]: > 6000 µg/mL; minimal effective dose (Mus musculus [2]): 6.25 mg/kg

**Q.** With Cc1cc(NC2CCCCC2)c2c(ccc3c[nH]nc32)n1 as the compound, how does the solubility [1] read?
**A.** ≥ 25000 µg/mL

**Q.** What about the minimal effective dose (Mus musculus [2]) of the same compound?
**A.** 1.85 mg/kg

**Q.** With Cc1cc(Nc2ccc(SCC(=O)O)cc2)c2c(ccc3c[nH]nc32)n1 as the compound, how does the minimal effective dose (Mus musculus [2]) read?
**A.** > 50 mg/kg

**Q.** Which solubility [1] does the source give for c1cc(NC2CCCCC2)c2c(ccc3c[nH]nc32)n1 here?
**A.** ≥ 25000 µg/mL

**Q.** And the MED (Mus musculus [3])?
**A.** Toxic

**Q.** Which solubility [1] does the source give for Cc1cc(Nc2ccc(OCc3ccccc3)cc2)c2c(ccc3c[nH]nc32)n1 here?
**A.** < 6000 µg/mL

**Q.** What about the minimal effective dose (Mus musculus [2]) of the same compound?
**A.** 0.62 mg/kg
